Data on four compounds can be found in PMC5925453 (EBioMedicine, 2018).

Holding throughout (type): cell-based
The subject of experiment [1] is STAT3 and FAK phosphorylation. Description: Western blotting, dasatinib or TPX-0005, PC9 and H1975 cell lines. Conditions: dasatinib 50 and 100 μM respectively, 24 h. A general note: Immunoblotting shows a protein as a band on a membrane.
In experiment [2] the test system is PC9 (exon 19 deletion) cells. The experiment is described as follows: Cell viability assay. Conditions: for IC50: Homo sapiens, PC-9, 72 h.
Another experiment has as its system 11–18 (Leu858Arg) cells. The experiment is described as follows: cells. Conditions: 72 h.
Experiment [3] relates to HCC4006 (exon 19 deletion) cells. Description: Cell viability assay. Conditions: Homo sapiens, HCC4006, 72 h.
Experiment [4] deals with HCC827 (exon 19 deletion) cells. Description: Cell viability assay. The settings on record: Homo sapiens, HCC827, 72 h.
Experiment [5] has as its system H1975 (Leu858Arg and Thr790Met) cells. Description: cells. Conditions: for IC50: Homo sapiens, NCI-H1975, 72 h.
Experiment [6] relates to phospho-STAT3 in PC9 cells. Description: Immunofluorescence and imaging flow cytometry of STAT3 / phospho-STAT3. The settings on record: 24 h. In general terms: In flow cytometry, cells or beads pass a laser one at a time.
The test system of experiment [7] is EGFR downstream signal transduction pathways and RTKs. The experiment is described as follows: Western blotting, osimertinib with TPX-0005, PC9, 11–18 and H1975 cell lines. The settings on record: TPX-0005 1 μM, 24 h.
The test system of experiment [8] is mRNA expression of RTK and non-RTK genes. The experiment is described as follows: Quantitative RT-PCR after treatment, PC9 and H1975 cells. The settings on record: TPX-0005 1 μM alone or combined with an EGFR TKI, five days.
Where [9] appears, read: osimertinib 0.05, 0.8 and 0.02 μM respectively.

Bounds are passed on as bounds.

Consider `Cc1nc(Nc2ncc(C(=O)Nc3c(C)cccc3Cl)s2)cc(N2CCN(CCO)CC2)n1` [Dasatinib], for which the “STAT3 and FAK phosphorylation” value in experiment [1] was “induced”.
With `COc1cc2ncnc(Nc3ccc(F)c(Cl)c3)c2cc1NC(=O)/C=C/CN1CCCCC1` [Dacomitinib], the IC50 (usually the midpoint of a concentration-inhibition curve) was less than 10 nM in [2], 10 nM in the experiment on 11–18 (Leu858Arg) cells, less than 10 nM in [3] and less than 10 nM in experiment [4].
Turning to `C[C@H]1CNC(=O)c2cnn3ccc(nc23)N[C@H](C)c2cc(F)ccc2O1` [TPX-0005], the half-inhibitory concentration (IC50) in experiment [2] stood at 1000 nM. Further, the “interaction of TPX-0005 with gefitinib (cell viability, colony formation)” value in experiment [2] (PC9 cells) is reported as “synergistic”. Moreover, in experiment [5], the “interaction of TPX-0005 with osimertinib (cell viability, colony formation)” value is on record as “synergistic” and the IC50 was found to be 1000 nM. In experiment [3], this compound displayed a concentration for half-maximal inhibition (IC50) of 1480 nM. Also, the “STAT3 activation state by intracellular localization (immunofluorescence)” value in experiment [6] was “did not occur”. The “AXL total protein expression” value in [7] is recorded as “minor effect”. Also, in experiment [7] (setting [9]), the CDCP1 phosphorylation result is “diminished”; the “Src and FAK phosphorylation” value is given as “abrogated”. In addition, the “mRNA expression of most of the transcripts explored” value in experiment [8] is on record as “abolished or attenuated”.
As to `C=CC(=O)Nc1cc(Nc2nccc(-c3cn(C)c4ccccc34)n2)c(OC)cc1N(C)CCN(C)C` [Osimertinib], the 50% inhibitory concentration (IC50) in [2] is 20 nM; in [5] it was 20 nM; in experiment [3], 10 nM; in experiment [4], 10 nM. Also, in [7] (setting [9]), the “Src and FAK phosphorylation” value is “induced”.
